Data taken from patent publication US6025467A, “Parathyroid hormone derivatives and their use” (Takeda Chemical Industries, Ltd., priority 1995, dated 2000).
Non-standard residues stand in square brackets, D forms with d. Residues, ends and D or L forms follow the SMILES beside them. No end group written: not given here. 2Nal = N[C@@H](Cc1ccc2ccccc2c1)C(=O)O; Aib = CC(C)(N)C(=O)O

Key:
Sprangue Dawley rats = assay: Increase in femur bone weight in rats after subcutaneous dosing; assay type: in vivo, rat; settings: dried right femur weight compared with vehicle group
Description: To four-week-old male Sprangue Dawley rats, the compounds synthesized in Example 1 […], and increases in the bone weight in their femurs were compared with that of a group to which a vehicle (0.15M NaCl, 0.001N hydrochloric acid and 2% heat-inactivated rat serum) was given. After administration, their right femurs were taken out, and the tissues around them were removed. Then, the femurs were dried at 100° C. for 3 hours and weighed.

PTH receptor = PTH receptor (mouse, UniProt P41593); assay: cell-based or functional assay
[1] = 4.9 nmol/kg a day subcutaneously for two weeks, four-week-old male rats

CC[C@H](C)[C@H](NC(=O)[C@H](CCC(=O)O)NC(=O)[C@H](CO)NC(=O)[C@@H](NC(=O)[C@@H](N)CO)C(C)C)C(=O)N[C@@H](CCC(N)=O)C(=O)N[C@@H](CC(C)C)C(=O)N[C@@H](CCSC)C(=O)N[C@@H](Cc1c[nH]cn1)C(=O)N[C@@H](CC(=O)O)C(=O)N[C@@H](CCCCN)C(=O)NCC(=O)N[C@@H](CCCCN)C(=O)N[C@@H](Cc1c[nH]cn1)C(=O)N[C@@H](CC(C)C)C(=O)N[C@@H](CC(N)=O)C(=O)N[C@@H](CO)C(=O)N[C@@H](CCSC)C(=O)N[C@@H](CCC(=O)O)C(=O)N[C@@H](CCCNC(=N)N)C(=O)N[C@H](C(=O)N[C@@H](CCC(=O)O)C(=O)N[C@@H](Cc1c[nH]c2ccccc12)C(=O)N[C@@H](CC(C)C)C(=O)N[C@@H](CCCNC(=N)N)C(=O)N[C@@H](CCCCN)C(=O)N[C@@H](CCCCN)C(=O)N[C@@H](CC(C)C)C(=O)N[C@@H](CCC(N)=O)C(=O)N[C@@H](CC(=O)O)C(=O)N[C@H](C(=O)N[C@@H](Cc1c[nH]cn1)C(=O)N[C@@H](CC(N)=O)C(=O)N[C@@H](Cc1ccccc1)C(=O)O)C(C)C)C(C)C [(1), [Asp^10, Lys^11] hPTH(1-34)] (H-SVSEIQLMHDKGKHLNSMERVEWLRKKLQDVHNF-OH)
bone increase (Sprangue Dawley rats; 4.9 nmol/kg a day subcutaneously, continuously administered for 4 weeks): 66.6 mg

CC[C@H](C)[C@H](NC(=O)[C@H](CCC(=O)O)NC(=O)[C@H](CO)NC(=O)[C@@H](NC(=O)[C@@H](N)CO)C(C)C)C(=O)N[C@@H](CCC(N)=O)C(=O)N[C@@H](CC(C)C)C(=O)N[C@@H](CCSC)C(=O)N[C@@H](Cc1c[nH]cn1)C(=O)N[C@@H](CCC(=O)O)C(=O)N[C@@H](Cc1ccccc1)C(=O)N[C@H](C)C(=O)N[C@@H](CCCCN)C(=O)N[C@@H](Cc1c[nH]cn1)C(=O)N[C@@H](CC(C)C)C(=O)N[C@@H](CC(N)=O)C(=O)N[C@@H](CO)C(=O)N[C@@H](CCSC)C(=O)N[C@@H](CCC(=O)O)C(=O)N[C@@H](CCCNC(=N)N)C(=O)N[C@H](C(=O)N[C@@H](CCC(=O)O)C(=O)N[C@@H](Cc1c[nH]c2ccccc12)C(=O)N[C@@H](CC(C)C)C(=O)N[C@@H](CCCNC(=N)N)C(=O)N[C@@H](CCCCN)C(=O)N[C@@H](CCCCN)C(=O)N[C@@H](CC(C)C)C(=O)N[C@@H](CCC(N)=O)C(=O)N[C@@H](CC(=O)O)C(=O)N[C@H](C(=O)N[C@@H](Cc1c[nH]cn1)C(=O)N[C@@H](CC(N)=O)C(=O)N[C@@H](Cc1ccccc1)C(=O)O)C(C)C)C(C)C [(10), [Glu^10, Phe^11, D-Ala^12] hPTH(1-34)] (H-SVSEIQLMHEF[dA]KHLNSMERVEWLRKKLQDVHNF-OH)
bone increase (Sprangue Dawley rats; [1]): 19.4 mg

CC[C@H](C)[C@H](NC(=O)[C@H](CCC(=O)O)NC(=O)[C@H](CO)NC(=O)[C@@H](NC(=O)[C@@H](N)CO)C(C)C)C(=O)N[C@@H](CCC(N)=O)C(=O)N[C@@H](CC(C)C)C(=O)N[C@@H](CCSC)C(=O)N[C@@H](Cc1c[nH]cn1)C(=O)N[C@@H](CCC(=O)O)C(=O)N[C@@H](CC(C)C)C(=O)NCC(=O)N[C@@H](CCCCN)C(=O)N[C@@H](Cc1c[nH]cn1)C(=O)N[C@@H](CC(C)C)C(=O)N[C@@H](CO)C(=O)N[C@@H](CO)C(=O)N[C@@H](CCSC)C(=O)N[C@@H](CCC(=O)O)C(=O)N[C@@H](CCCNC(=N)N)C(=O)N[C@H](C(=O)N[C@@H](CCC(=O)O)C(=O)N[C@@H](Cc1c[nH]c2ccccc12)C(=O)N[C@@H](CC(C)C)C(=O)N[C@@H](CCCNC(=N)N)C(=O)N[C@@H](CCCCN)C(=O)N[C@@H](CCCCN)C(=O)N[C@@H](CC(C)C)C(=O)N[C@@H](CCC(N)=O)C(=O)N[C@@H](CC(=O)O)C(=O)N[C@H](C(=O)N[C@@H](Cc1c[nH]cn1)C(=O)N[C@@H](CC(N)=O)C(=O)N[C@@H](Cc1ccccc1)C(=O)O)C(C)C)C(C)C [(15), [Glu^10, Ser^16] hPTH(1-34)] (H-SVSEIQLMHELGKHLSSMERVEWLRKKLQDVHNF-OH)
bone increase (Sprangue Dawley rats; [1]): 15.1 mg

CC[C@H](C)[C@H](NC(=O)[C@H](CCC(=O)O)NC(=O)[C@H](CO)NC(=O)[C@@H](NC(=O)[C@@H](N)CO)C(C)C)C(=O)N[C@@H](CCC(N)=O)C(=O)N[C@@H](CC(C)C)C(=O)N[C@@H](CCSC)C(=O)N[C@@H](Cc1c[nH]cn1)C(=O)N[C@@H](CCC(=O)O)C(=O)N[C@@H](Cc1ccccc1)C(=O)NCC(=O)N[C@@H](CCCCN)C(=O)N[C@@H](Cc1c[nH]cn1)C(=O)N[C@@H](CC(C)C)C(=O)N[C@@H](CCCCN)C(=O)N[C@@H](CO)C(=O)N[C@@H](CCSC)C(=O)N[C@@H](CCC(=O)O)C(=O)N[C@@H](CCCNC(=N)N)C(=O)N[C@H](C(=O)N[C@@H](CCC(=O)O)C(=O)N[C@@H](Cc1c[nH]c2ccccc12)C(=O)N[C@@H](CC(C)C)C(=O)N[C@@H](CCCNC(=N)N)C(=O)N[C@@H](CCCCN)C(=O)N[C@@H](CCC(N)=O)C(=O)N[C@@H](CC(C)C)C(=O)N[C@@H](CCC(N)=O)C(=O)N[C@@H](CC(=O)O)C(=O)N[C@H](C(=O)N[C@@H](Cc1c[nH]cn1)C(=O)N[C@@H](CC(N)=O)C(=O)N[C@@H](Cc1ccccc1)C(=O)O)C(C)C)C(C)C [(17), [Glu^10, Phe^11, Lys^16, Gln^27] hPTH(1-34)] (H-SVSEIQLMHEFGKHLKSMERVEWLRKQLQDVHNF-OH)
bone increase (Sprangue Dawley rats; [1]): 12.4 mg

CC[C@H](C)[C@H](NC(=O)[C@H](CCC(=O)O)NC(=O)[C@H](CO)NC(=O)[C@@H](NC(=O)[C@@H](N)CO)C(C)C)C(=O)N[C@@H](CCC(N)=O)C(=O)N[C@@H](CC(C)C)C(=O)N[C@@H](CCSC)C(=O)N[C@@H](Cc1c[nH]cn1)C(=O)N[C@@H](CC(=O)O)C(=O)N[C@@H](Cc1ccccc1)C(=O)NCC(=O)N[C@@H](CCCCN)C(=O)N[C@@H](Cc1c[nH]cn1)C(=O)N[C@@H](CC(C)C)C(=O)N[C@@H](CCCCN)C(=O)N[C@@H](CCCCN)C(=O)N[C@@H](CCSC)C(=O)N[C@@H](CCC(=O)O)C(=O)N[C@@H](CCCNC(=N)N)C(=O)N[C@H](C(=O)N[C@@H](CCC(=O)O)C(=O)N[C@@H](Cc1c[nH]c2ccccc12)C(=O)N[C@@H](CC(C)C)C(=O)N[C@@H](CCCNC(=N)N)C(=O)N[C@@H](CCCCN)C(=O)N[C@@H](CCC(N)=O)C(=O)N[C@@H](CC(C)C)C(=O)N[C@@H](CCC(N)=O)C(=O)NC(C)(C)C(=O)N[C@H](C(=O)N[C@@H](Cc1c[nH]cn1)C(=O)N[C@@H](CC(N)=O)C(=O)N[C@@H](Cc1ccccc1)C(=O)O)C(C)C)C(C)C [(19), [Asp^10, Phe^11, Lys^16,17, Gln^2 7, Aib^30] hPTH(1-34)] (H-SVSEIQLMHDFGKHLKKMERVEWLRKQLQ[Aib]VHNF-OH)
bone increase (Sprangue Dawley rats; [1]): 16.9 mg

CC[C@H](C)[C@H](NC(=O)[C@H](CCC(=O)O)NC(=O)[C@H](CO)NC(=O)[C@@H](NC(=O)[C@@H](N)CO)C(C)C)C(=O)N[C@@H](CCC(N)=O)C(=O)N[C@@H](CC(C)C)C(=O)N[C@@H](CCSC)C(=O)N[C@@H](Cc1c[nH]cn1)C(=O)N[C@@H](CCC(=O)O)C(=O)N[C@@H](CC(C)C)C(=O)NCC(=O)N[C@@H](CCCN)C(=O)N[C@@H](Cc1c[nH]cn1)C(=O)N[C@@H](CC(C)C)C(=O)N[C@@H](CC(N)=O)C(=O)N[C@@H](CO)C(=O)N[C@@H](CCSC)C(=O)N[C@@H](CCC(=O)O)C(=O)N[C@@H](CCCNC(=N)N)C(=O)N[C@H](C(=O)N[C@@H](CCC(=O)O)C(=O)N[C@@H](Cc1c[nH]c2ccccc12)C(=O)N[C@@H](CC(C)C)C(=O)N[C@@H](CCCNC(=N)N)C(=O)N[C@@H](CCCCN)C(=O)N[C@@H](CCCCN)C(=O)N[C@@H](CC(C)C)C(=O)N[C@@H](CCC(N)=O)C(=O)N[C@@H](CC(=O)O)C(=O)N[C@H](C(=O)N[C@@H](Cc1c[nH]cn1)C(=O)N[C@@H](CC(N)=O)C(=O)N[C@@H](Cc1ccccc1)C(=O)O)C(C)C)C(C)C [(22), [Glu^10, Orn^13] hPTH(1-34)]
bone increase (Sprangue Dawley rats; [1]): 14.8 mg

B1: [Asp^10 ] hPTH(1-34) (peptide)
peptide: SVSEIQLMHDLGKHLNSMERVEWLRKKLQDVHNF
cAMP increase (pmol/well) (PTH receptor): 0.6 pmol/well

B2: [Glu^10 ] hPTH(1-34) (peptide)
peptide: SVSEIQLMHELGKHLNSMERVEWLRKKLQDVHNF
cAMP increase (pmol/well) (PTH receptor): 1.81 pmol/well

B3: [Asp^10, Phe^11 ] hPTH(1-34) (peptide)
peptide: SVSEIQLMHDFGKHLNSMERVEWLRKKLQDVHNF
cAMP increase (pmol/well) (PTH receptor): 2.58 pmol/well

B4: [Asp^10, Ala(2-Naph)^11 ] hPTH(1-34) (peptide)
peptide: SVSEIQLMHD[2Nal]GKHLNSMERVEWLRKKLQDVHNF
cAMP increase (pmol/well) (PTH receptor): 2.65 pmol/well
